Measurements reported in ChEMBL document CHEMBL4842310, “Cannabichromene and Δ9-Tetrahydrocannabinolic Acid Identified as Lactate Dehydrogenase-A Inhibitors by in Silico and in Vitro Screening” (J Nat Prod, 2021).

Columns and labels:
[1] = biological target: L-lactate dehydrogenase B chain (Homo sapiens) (UniProt P07195); assay: Inhibition of human LDHB assessed as reduction in lactate production using pyruvate as substrate at 10 uM in presence of NADH by spectrophotometric analysis relative to control
[2] = biological target: T1, L-lactate dehydrogenase A chain (Homo sapiens, UniProt P00338); assay: Non-competitive inhibition of human LDHA assessed as reduction in lactate production using pyruvate as substrate in presence of NADH by Lineweaver-Burk plot analysis
[3] = biological target: T1, L-lactate dehydrogenase A chain; assay: Inhibition of human LDHA assessed as reduction in lactate production using pyruvate as substrate at 10 uM in presence of NADH by spectrophotometric analysis relative to control

L-lactate dehydrogenase B chain (Homo sapiens), sequence (P07195 2-334 limits assumed): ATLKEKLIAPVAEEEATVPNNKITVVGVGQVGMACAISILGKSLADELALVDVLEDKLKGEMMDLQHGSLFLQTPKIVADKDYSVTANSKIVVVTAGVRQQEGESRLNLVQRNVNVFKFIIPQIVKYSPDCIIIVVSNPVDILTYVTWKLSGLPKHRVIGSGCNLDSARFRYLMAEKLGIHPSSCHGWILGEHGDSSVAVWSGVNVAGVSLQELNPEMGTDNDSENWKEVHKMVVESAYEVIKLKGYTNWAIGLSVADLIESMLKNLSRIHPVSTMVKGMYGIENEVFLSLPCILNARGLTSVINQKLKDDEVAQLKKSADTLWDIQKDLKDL

Structure (SMILES)	inhibition [1] [%]	Ki [2] [µM]	inhibition [3] [%]
CCCCCc1cc2c(c(O)c1C(=O)O)-c1cc(C)ccc1C(C)(C)O2	< 50		
CCCc1cc2c(c(O)c1C(=O)O)C=CC(C)(CCC=C(C)C)O2 (centres undefined)	< 50		
C=C(C)[C@@H]1CCC(C)=C[C@H]1c1c(O)cc(CCCCC)cc1O [CANNABIDIOL]	< 50	24	
CCCc1cc(O)c(C/C=C(\C)CCC=C(C)C)c(O)c1C(=O)O	< 50		
CCCCCc1cc2c(c(O)c1C(=O)O)C=CC(C)(CCC=C(C)C)O2 (centres undefined)	< 50		
CCCCCc1cc(O)c2c(c1)OC(C)(C)c1ccc(C)cc1-2	< 50		
CC(C)=CCC/C(C)=C/Cc1c(O)cc(C)cc1O	< 50		
C=C(C)[C@@H]1CCC(C)=C[C@H]1c1c(O)cc(CCCCC)c(C(=O)O)c1O	< 50		
C=C(C)[C@@H]1CCC(C)=C[C@H]1c1c(O)cc(CCC)cc1O	< 50		
C=C(C)[C@@H]1CCC(C)=C[C@H]1c1c(O)cc(CCC)c(C(=O)O)c1O	< 50		
CCCc1cc(O)c2c(c1)OC(C)(C)[C@@H]1CCC(C)=C[C@@H]21	< 50		
CCCCCc1cc(O)c(C/C=C(\C)CCC=C(C)C)c(O)c1C(=O)O	< 50		
CCCc1cc2c(c(O)c1C(=O)O)[C@@H]1C=C(C)CC[C@H]1C(C)(C)O2	< 50		
CCCCCc1cc(O)c2c(c1)OC(C)(CCC=C(C)C)C=C2 (centres undefined) [CANNABICHROMENE]	< 50	8.5	> 50
CCCCCc1cc(O)c2c(c1)OC(C)(C)[C@@H]1CCC(C)=C[C@@H]21 [DRONABINOL]	< 50	14	
CCCCCc1cc2c(c(O)c1C(=O)O)[C@@H]1C=C(C)CC[C@H]1C(C)(C)O2 [DELTA9-TETRAHYDROCANNABINOLIC ACID A]	< 50	6.5	> 50
CCCc1cc(O)c(C/C=C(\C)CCC=C(C)C)c(O)c1	< 50		
CCCCCc1cc(O)c(C/C=C(\C)CCC=C(C)C)c(O)c1	< 50		
